Measured values published in BindingDB's records for doi:10.1111/cbdd.12445 (Konkuk University, 2015).

Biological target: Aurora kinase B (Homo sapiens, UniProt Q96GD4)
Assay: Aurora B Kinase Assay

Aurora kinase B, sequence (Q96GD4 whole entry): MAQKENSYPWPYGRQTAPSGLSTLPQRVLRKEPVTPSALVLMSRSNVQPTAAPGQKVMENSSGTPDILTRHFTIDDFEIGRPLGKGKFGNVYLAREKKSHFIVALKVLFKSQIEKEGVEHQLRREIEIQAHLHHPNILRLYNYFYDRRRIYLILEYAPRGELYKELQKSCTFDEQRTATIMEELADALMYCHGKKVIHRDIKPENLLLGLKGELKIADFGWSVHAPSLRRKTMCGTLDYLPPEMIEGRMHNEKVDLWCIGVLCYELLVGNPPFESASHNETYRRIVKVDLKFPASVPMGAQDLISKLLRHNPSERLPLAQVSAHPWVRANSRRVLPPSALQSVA

O=c1c(O)c(-c2cc(O)c(O)c(O)c2)oc2cc(O)cc(O)c12
IC50: 3.98 µM

COc1cc(-c2oc3cc(O)cc(O)c3c(=O)c2O)ccc1O
IC50: 4.34 µM

O=c1c(O)c(-c2ccc(O)c(O)c2)oc2c(O)c(O)cc(O)c12
IC50: 4.1 µM

O=c1cc(-c2ccccc2)oc2cc(O)c(O)c(O)c12
IC50: 4.06 µM

O=c1c(O)c(-c2ccc(O[C@@H]3O[C@H](CO)[C@@H](O)[C@H](O)[C@H]3O)c(O)c2)oc2cc(O)cc(O)c12
IC50: 29.4 µM

O=c1c(O)c(-c2ccc(O)cc2)oc2cc(O)cc(O)c12
IC50: 4.03 µM

O=c1c(O)c(-c2ccc(O)cc2O)oc2cc(O)cc(O)c12 [2-(2,4-dihydroxyphenyl)-3,5,7-trihydroxychromen-4-one]
IC50: 4.71 µM

O=c1c(O)c(-c2ccc(O)c(O)c2)oc2cc(O)c(O)c(O)c12 [2-(3,4-dihydroxyphenyl)-3,5,6,7-tetrahydroxy-4H-chromen-4-one]
IC50: 2.62 µM

O=c1c(O)c(-c2ccc(O)c(O)c2)oc2c(O[C@@H]3O[C@H](CO)[C@@H](O)[C@H](O)[C@H]3O)c(O)cc(O)c12 [2-(3,4-dihydroxyphenyl)-3,5,7-trihydroxy-8-[(2S,3R,4S,5S,6R)-3,4,5-trihydroxy-6-(hydroxymethyl)oxan-2-yl]oxychromen-4-one]
IC50: 11.1 µM

O=c1c(O)c(-c2ccc(O)c(O)c2)oc2cc(O)cc(O)c12 [2-(3,4-dihydroxyphenyl)-3,5,7-trihydroxy-chromone;hydrate]
IC50: 3.96 µM

O=c1c(O)c(-c2ccc(O)c(O)c2)oc2cc(O)ccc12 [2-(3,4-dihydroxyphenyl)-3,7-dihydroxy-chromen-4-one]
IC50: 2.63 µM

O=c1c(O[C@@H]2O[C@H](CO)[C@@H](O)[C@H](O)[C@H]2O)c(-c2ccc(O)c(O)c2)oc2cc(O)cc(O)c12 [2-(3,4-dihydroxyphenyl)-5,7-dihydroxy-3-[(2S,3R,4S,5S,6R)-3,4,5-trihydroxy-6-(hydroxymethyl)oxan-2-yl]oxychromen-4-one]
IC50: 10.7 µM

O=c1cc(-c2ccc(O)c(O)c2)oc2cc(O)cc(O)c12 [2-(3,4-dihydroxyphenyl)-5,7-dihydroxy-4H-chromen-4-one]
IC50: 3.88 µM

COc1ccc(-c2cc(=O)c3c(OC)c(OC)c(OC)cc3o2)cc1OC [2-(3,4-dimethoxyphenyl)-5,6,7-trimethoxy-4H-chromen-4-one]
IC50: 5.31 µM

O=c1c(O)c(-c2ccccc2O)oc2cc(O)cc(O)c12 [3,5,7-trihydroxy-2-(2-hydroxyphenyl)chromen-4-one]
IC50: 17.8 µM

COc1ccc(-c2oc3cc(O)cc(O)c3c(=O)c2O)cc1O [3,5,7-trihydroxy-2-(3-hydroxy-4-methoxyphenyl)-4H-chromen-4-one]
IC50: 7.39 µM

COc1cc(-c2oc3cc(O)ccc3c(=O)c2O)ccc1O [3,7-dihydroxy-2-(4-hydroxy-3-methoxyphenyl)chromen-4-one]
IC50: 2.85 µM

O=c1c(O)c(-c2ccccc2)oc2ccccc12 [3-hydroxy-2-phenyl-4H-chromen-4-one]
IC50: 4.29 µM

O=c1cc(-c2ccc(O)cc2)oc2cc(O)c(O)c(O)c12 [5,6,7-trihydroxy-2-(4-hydroxyphenyl)-4H-chromen-4-one]
IC50: 3.85 µM

C[C@@H]1O[C@@H](Oc2c(-c3cc(O)c(O)c(O)c3)oc3cc(O)cc(O)c3c2=O)[C@H](O)[C@H](O)[C@H]1O [5,7-dihydroxy-3-[(2S,3R,4R,5R,6S)-3,4,5-trihydroxy-6-methyloxan-2-yl]oxy-2-(3,4,5-trihydroxyphenyl)chromen-4-one]
IC50: 3.89 µM

COc1cc(-c2cc(=O)c3c(O)c(OC)c(OC)c(OC)c3o2)cc(OC)c1OC [5-hydroxy-6,7,8-trimethoxy-2-(3,4,5-trimethoxyphenyl)chromen-4-one]
IC50: 42.7 µM

O=c1cc(-c2ccc(O)cc2)oc2cc(O[C@@H]3O[C@H](CO)[C@@H](O)[C@H](O)[C@H]3O[C@@H]3OC[C@](O)(CO)[C@H]3O)cc(O)c12 [7-[(2S,3R,4S,5S,6R)-3-[(2S,3R,4R)-3,4-dihydroxy-4-(hydroxymethyl)oxolan-2-yl]oxy-4,5-dihydroxy-6-(hydroxymethyl)oxan-2-yl]oxy-5-hydroxy-2-(4-hydroxyphenyl)chromen-4-one]
IC50: 12.1 µM

O=C(O)[C@H]1O[C@@H](Oc2cc3oc(-c4ccccc4)cc(=O)c3c(O)c2O)[C@H](O)[C@@H](O)[C@@H]1O [(2S,3S,4S,5R,6S)-6-(5,6-dihydroxy-4-oxo-2-phenyl-4H-chromen-7-yloxy)-3,4,5-trihydroxy-tetrahydro-2H-pyran-2-carboxylic acid]
IC50: 12.2 µM

O=c1cc(-c2ccc(O)cc2)oc2cc(O)cc(O)c12 [Naringenin, 18]
IC50: 3.96 µM

O=c1c(O)c(-c2ccccc2)oc2cc(O)cc(O)c12 [norizalpinin]
IC50: 9.8 µM
